Reference: patent publication US9896442B2, “Antifungal treatment” (Wisconsin Alumni Research Foundation, priority 2010, dated 2018)

What was measured:
Hik1 Saccharomyces = Hik1 Saccharomyces reporter strain growth assay (small molecule screen); type: cell-based; details: FIG. 2
Excerpt: To identify putative antifungals that act directly or indirectly through histidine kinase homologs of Drk1, we used a high throughput growth assay that uses a yeast reporter strain expressing a heterologous two-component sensor kinase (Hik1) to identify compounds that target the kinase and inhibit/kill the yeast. Hik1 and Drk1 are very closely related having near 80% amino acid sequence identity (FIG. 1). The Saccharomyces reporter contained an episomal plasmid with the hybrid histidine kinase Hik1 under the control of the galactose promoter (8). The Saccharomyces strain was provided by the Osada lab from RIKEN (Institute of Physical and Chemical Research, 2-1 Hirosawa, Wako, Saitama, 351-0198, Japan). It was used for screening initially. […]

Aspergillus fumigatus = experiment: Agar disk diffusion; type: cell-based; details: disks containing 1 μg of test compound; FIG. 4
Protocol: Small molecule activity against the fungal pathogens Candida albicans and Aspergillus fumigatus was evaluated using an agar disk diffusion assay. Yeast (1×10^4) from an overnight culture of C. albicans was suspended in 600 μl of top agar (1% yeast extract (ThermoFisher), 2% peptone (ThermoFisher), 2% dextrose (Sigma), and 0.5% agar (Fisher)). This suspension was spread and allowed to solidify on 5 ml of base agar (YPD media containing 2% agar) in the well of a 6-well plate. Disks (6 mm AA, Whatman Inc., Piscataway, N.J., Cat#2017-006) were aseptically placed on a sterile Petri dish lid. Compounds selected from stage II (1 μg total) were each suspended in 100% dimethyl sulfoxide (DMSO) to a total volume of 5 μl, added to separate disks, and allowed to dry for five minutes. Fludioxonil (Sigma) and DMSO-only disks served as positive and negative controls, respectively. Disks were placed into separate wells and incubated at room temperature for 48 hours. Antifungal activity was determined based on the size of the zone of inhibition of C. albicans growth.
Activity against A. fumigatus was determined following the aforementioned disk diffusion assay. The protocol only differed in that 6.0×10^5 conidia were used instead of yeast, and the plates were incubated at 37° C. for 48 hours instead of room temperature (FIG. 4).

[1] = tested on: Candida albicans biofilms; experiment: Candida biofilm XTT reduction assay; type: cell-based; details: 24 hours, FIG. 6
Protocol: Compound activity against C. albicans biofilm was assessed using a 96-well plate format as previously described by Nett et al. (15). Briefly, the C. albicans inoculum was prepared by diluting an overnight culture grown at 37° C. in RPMI-MOPS to 1×10^6 in RPMI-MOPS based on hemocytometer counts. An aliquot of 100 μl of the inoculum was added to each well of a 96-well flat-bottom polystyrene plate. After a 6-h incubation at 37° C., the wells were washed with phosphate-buffered saline (PBS) three times to remove any non-adherent cells. Fresh medium and fluconazole (Sigma), compound 13, and compound 33 were added and the plates were incubated at 37° C. for 24 hours. The XTT reduction assay was used to quantify the viability of biofilm cell as previously described (11). Briefly, 90 μl of (2,3)-bis-(2-Methoxy-4-Nitro-5-Sulphenyl)-(2H)-Tetrazolium-5-Carboxanilide (XTT; 1 mg/ml) (Sigma) and 10 μl phenazine methosulfate (320 μg/ml) (Sigma) were added to each well, and the plate was incubated for 2 h at 37° C. Cell viability was determined by measuring the absorbance at 490 nm using an automated plate reader. The biofilm growth assay was performed in duplicate.

Candida albicans biofilm = experiment: In vitro biofilm drug synergy (checkerboard, XTT); type: cell-based; details: for growth reduction: alone and in combination; for Synergy with Fluconazole by fractional inhibitory concentration (FIC): FIC from EC25, values ≦0.5 indicate synergy, FIG. 9
Protocol: Candida biofilms were formed in 96-well flat-bottom polystyrene plates (Fischer) as described previously ([…], Crawford K, Andes D R. Optimizing a Candida Biofilm Microtiter Plate Model for Measurement of Antifungal Susceptibility by XTT Assay. J. Clin. Microbiol. 2011 Jan., 2). Cells from an overnight culture grown in YPD shaking at 37° C. were enumerated by hemocytometer and suspended in RPMI-MOPS (Fisher) at a concentration of 10^6 cells/ml. A 100 μl of inoculum was added to each well of the plate. After 6 h incubation at 37° C., biofilms were gently washed twice with phosphate-buffered saline (PBS) to remove unattached cells. […] The ranges of concentrations of the fluconazole used included the standard doses given to humans. After overnight incubation at 37° C., biofilms were washed twice with PBS. Measurement of biofilm cell metabolic activity using the XTT reduction assay was performed as previously described ([…], Crawford K, Andes D R. Optimizing a Candida Biofilm Microtiter Plate Model for Measurement of Antifungal Susceptibility by XTT Assay. J. Clin. Microbiol. 2011 January, […], and Andes D. Synergistic Effect of Calcineurin Inhibitors and Fluconazole against Candida albicans Biofilms. Antimicrob Agents Chemother. 2008 March; 52(3): 1127-1132). Briefly, 90 μl of XTT at 1 mg/ml (Sigma) and 10 μl phenazine methosulfate at 320 μg/ml (Sigma) were added to each well, and the plate was incubated at 37° C. for 2 h. Viable cell number was assessed using the Absorbance at 492nm measured using an automated plate reader. Assays were performed in duplicate. The drug concentration resulting in a 25% reduction in optical density compared to the no-drug control wells was determined (EC25).

Aspergillus flavus = experiment: Microbroth dilution against plant fungal pathogen; type: cell-based; details: four isolates of A. flavus; FIG. 8
Protocol: Clinical and Laboratory Standards Institute (CLSI) protocol M27 was used to quantify the minimum inhibitory concentration (MIC) of compounds 13 and 33 against yeast fungal pathogens (13). Briefly, compounds were solubilized in 100% DMSO and serially diluted two-fold in a 96 well plate in 100 μl of RPMI medium. A 100 μl aliquot of RPMI medium containing 3×10^3 yeast/ml of an overnight culture was then added to each well. Medium, medium+yeast, and medium+yeast+DMSO wells were prepared as controls. Each well was prepared in triplicate. The plates were incubated at 35° C. for 48 hours. The MIC concentration was defined as the concentration at which no growth was visible by eye and the results verified by plating on YPD agar. The experiment was performed in duplicate. MIC concentrations were also defined against filamentous fungi using the CLSI protocol […] (14). This protocol only differed from M27 in that 100 μl of medium containing 4×10^5 spores/ml were added instead of yeast (FIG. 5A-I). […] Briefly, the MICs of compounds 13 and 33 were determined for each of the 4 isolates and compared with the conventional antifungal compound, voriconazole (available from Sigma). […]

[2] = tested on: C. albicans resistant to conventional antifungals fluconazole and micafungin; experiment: Microbroth dilution (MIC), CLSI M27; type: cell-based, Candida albicans; details: FIG. 5B
Protocol: (§1) Clinical and Laboratory Standards Institute (CLSI) protocol M27 was used to quantify the minimum inhibitory concentration (MIC) of compounds 13 and 33 against yeast fungal pathogens (13). Briefly, compounds were solubilized in 100% DMSO and serially diluted two-fold in a 96 well plate in 100 μl of RPMI medium. A 100 μl aliquot of RPMI medium containing 3×10^3 yeast/ml of an overnight culture was then added to each well. Medium, medium+yeast, and medium+yeast+DMSO wells were prepared as controls. Each well was prepared in triplicate. The plates were incubated at 35° C. for 48 hours. The MIC concentration was defined as the concentration at which no growth was visible by eye and the results verified by plating on YPD agar. The experiment was performed in duplicate. MIC concentrations were also defined against filamentous fungi using the CLSI protocol M38 (14). This protocol only differed from M27 in that 100 μl of medium containing 4×10^5 spores/ml were added instead of yeast (FIG. 5A-I).

[3] = tested on: wild type Aspergillus fumigatus; experiment: Microbroth dilution (MIC), CLSI M38; type: cell-based; details: FIG. 5H
Protocol: as §1

Candida albicans = experiment: Microbroth dilution (MIC), CLSI M27; type: cell-based; details: FIG. 5A
Protocol: as §1

C. gattii = experiment: Microbroth dilution (MIC), CLSI M27; type: cell-based; details: FIG. 5G
Protocol: as §1

C. glabrata = experiment: Microbroth dilution (MIC), CLSI M27; type: cell-based; details: FIG. 5E
Protocol: as §1

Cryptococcus neoformans = experiment: Microbroth dilution (MIC), CLSI M27; type: cell-based; details: FIG. 5F
Protocol: as §1

C. lusitaniae = experiment: Microbroth dilution (MIC), CLSI M27; type: cell-based; details: FIG. 5C
Protocol: as §1

C. krusei = experiment: Microbroth dilution (MIC), CLSI M27; type: cell-based; details: FIG. 5D
Protocol: as §1

[4] = tested on: drug resistant A. fumigatus; experiment: Microbroth dilution (MIC), CLSI M38; type: cell-based, Aspergillus fumigatus; details: FIG. 5I
Protocol: as §1

Drk1 reporter strain = Drk1 reporter strain corroboration; type: cell-based
Excerpt: The results of the Hik1 histidine kinase reporter strain were corroborated with a Drk1 reporter strain, especially regarding compounds 13 and 33. Dr. David Andes, Dr. Nancy Keller, and the clinical microbiology laboratory at the University of Wisconsin Hospital provided the microbial strains used in this study (9-12).

[5] = FIG. 9A, compound 13 experiment: fluconazole at 62.5 ug/ml, 13 at 0.8 ug/ml
[6] = FIG. 9B, compound 33 experiment: fluconazole at 62.5 ug/ml, 33 at 1.6 ug/ml

Protocol for human red blood cells: Briefly, human red blood cells (RBCs) were isolated via FICOLL® (Sigma) gradient centrifugation and stored on ice. The RBCs were pelleted by centrifugation and washed with PBS a total of three times. A 2% RBC suspension in PBS was made and stored on ice for less than one hour. Drugs were suspended in DMSO and two-fold serial dilutions were prepared in PBS with a total volume of 100 μl in a 96-well round-bottom plate in triplicate. Wells containing PBS and Triton X-100 (Sigma) were used as negative and positive controls of hemolysis, respectively. A 100 μl aliquot of the 2% RBC suspension was then added to each well. The plate was then incubated at 37° C. for one hour. The plate was then centrifuged at 2,500 rpm for five minutes to pellet the RBCs. A 50 μl aliquot of the supernatant was transferred to a fresh 96-well plate, and absorbance at 405 nm was measured using an automated plate reader to quantify heme release.

Structure (SMILES): N#Cc1c[nH]cc1-c1cccc2c1OC(F)(F)O2 [fludioxonil]
- Growth of Hik1 Saccharomyces on galactose with fludioxonil (Hik1 Saccharomyces; galactose (Hik1 induced)): inhibited Saccharomyces growth
- Growth of Hik1 Saccharomyces in glucose with fludioxonil (Hik1 Saccharomyces; glucose, which does not induce Hik1): uninhibited
- Inhibition of Aspergillus growth (zone of inhibition) (Aspergillus fumigatus): created zones of inhibition

Structure (SMILES): OC(Cn1cncn1)(Cn1cncn1)c1ccc(F)cc1F [fluconazole, reference compound]
- Concentration inhibiting Candida biofilm growth [1]: > 1000 µg/mL
- growth reduction (Candida albicans biofilm; [5]): 15%
- growth reduction (Candida albicans biofilm; [6]): approximately 6%

Structure (SMILES): O=[N+]([O-])c1ccc(/C=C/c2ccc([N+](=O)[O-])o2)cc1 [Compound 13]
- Cumulative inhibition of Aspergillus flavus (Aspergillus flavus): inhibition
- Hemolysis (heme release, absorbance at 405 nm) compared with amphotericin B (human red blood cells): less hemolytic
- Activity (MIC, cumulative inhibition) [2]: active
- Activity (MIC, cumulative inhibition) [3]: active
- Synergy with Fluconazole by fractional inhibitory concentration (FIC) (Candida albicans biofilm): synergy
- growth reduction (Candida albicans biofilm; [5]): 18%
- Activity (MIC, cumulative inhibition) (Candida albicans): active
- Activity (MIC, cumulative inhibition) (C. gattii): active
- Activity (MIC, cumulative inhibition) (C. glabrata): active
- Activity (MIC, cumulative inhibition) (Cryptococcus neoformans): active
- Activity (MIC, cumulative inhibition) (C. lusitaniae): active
- Activity (MIC, cumulative inhibition) (C. krusei): active
- Activity (MIC, cumulative inhibition) [4]: active
- Inhibition of Aspergillus growth (zone of inhibition) (Aspergillus fumigatus): inhibited growth
- Hik1 reporter strain results corroborated with Drk1 reporter strain (Drk1 reporter strain): corroborated

Structure (SMILES): CSc1nnc(Sc2ncc([N+](=O)[O-])s2)s1 [Compound 33]
- Cumulative inhibition of Aspergillus flavus (Aspergillus flavus): inhibition
- Hemolysis (heme release, absorbance at 405 nm) compared with amphotericin B (human red blood cells): less hemolytic
- Activity (MIC, cumulative inhibition) [2]: active
- Activity (MIC, cumulative inhibition) [3]: active
- Synergy with Fluconazole by fractional inhibitory concentration (FIC) (Candida albicans biofilm): synergy
- growth reduction (Candida albicans biofilm; [6]): approximately 9%
- Activity (MIC, cumulative inhibition) (Candida albicans): active
- Activity (MIC, cumulative inhibition) (C. gattii): active
- Activity (MIC, cumulative inhibition) (C. glabrata): active
- Activity (MIC, cumulative inhibition) (Cryptococcus neoformans): active
- Activity (MIC, cumulative inhibition) (C. lusitaniae): active
- Activity (MIC, cumulative inhibition) (C. krusei): active
- Activity (MIC, cumulative inhibition) [4]: active
- Inhibition of Aspergillus growth (zone of inhibition) (Aspergillus fumigatus): inhibited growth
- Hik1 reporter strain results corroborated with Drk1 reporter strain (Drk1 reporter strain): corroborated

Structure (SMILES): C[C@@H]1[C@H](O)[C@@H](C)/C=C/C=C/C=C/C=C/C=C/C=C/C=C/[C@H](O[C@@H]2O[C@H](C)[C@@H](O)[C@H](N)[C@@H]2O)C[C@@H]2O[C@](O)(C[C@@H](O)C[C@@H](O)[C@H](O)CC[C@@H](O)C[C@@H](O)CC(=O)O[C@H]1C)C[C@H](O)[C@H]2C(=O)O [amphotericin B, reference compound]
- Inhibition of Aspergillus growth (zone of inhibition) (Aspergillus fumigatus): created zones of inhibition
